According to PubChem BioAssay AID1259407 (Chemical Carcinogenesis Research Information System (CCRIS), 2018):
Activity calls are given as the source filed them. The rule behind the calls is not given here.

Tested on: CCRIS mutagenicity, Ames/micronucleus/aberration tests
Assay: CCRIS mutagenicity studies
[1] = Test System: AMES SALMONELLA TYPHIMURIUM, Strain/Indicator: TA98, Metabolic Activation: NONE, Method: STANDARD PLATE
[2] = Test System: AMES SALMONELLA TYPHIMURIUM, Strain/Indicator: TA100, Metabolic Activation: NONE, Method: STANDARD PLATE
[3] = Test System: AMES SALMONELLA TYPHIMURIUM, Strain/Indicator: TA1535, Metabolic Activation: NONE, Method: STANDARD PLATE

Nc1n[nH]c(N)n1
mutagenic call (Test System: AMES SALMONELLA TYPHIMURIUM, Strain/Indicator: TA97, Metabolic Activation: NONE, Method: STANDARD PLATE): inactive; negative
mutagenic call (Test System: AMES SALMONELLA TYPHIMURIUM, Strain/Indicator: TA97, Metabolic Activation: RAT, LIVER, S-9, AROCLOR, Method: STANDARD PLATE): inactive; negative
mutagenic call (Test System: AMES SALMONELLA TYPHIMURIUM, Strain/Indicator: TA98, Metabolic Activation: HAMSTER, LIVER, S-9, AROCLOR 1254 (10%), Method: PREINCUBATION): inactive; negative
mutagenic call (Test System: AMES SALMONELLA TYPHIMURIUM, Strain/Indicator: TA98, Metabolic Activation: NONE, Method: PREINCUBATION): inactive; negative
mutagenic call [1]: inactive; negative
mutagenic call (Test System: AMES SALMONELLA TYPHIMURIUM, Strain/Indicator: TA98, Metabolic Activation: RAT, LIVER, S-9, AROCLOR 1254 (10%), Method: PREINCUBATION): inactive; negative
mutagenic call (Test System: AMES SALMONELLA TYPHIMURIUM, Strain/Indicator: TA98, Metabolic Activation: RAT, LIVER, S-9, AROCLOR, Method: STANDARD PLATE): inactive; negative
mutagenic call (Test System: AMES SALMONELLA TYPHIMURIUM, Strain/Indicator: TA100, Metabolic Activation: HAMSTER, LIVER, S-9, AROCLOR 1254 (10%), Method: PREINCUBATION): inactive; negative
mutagenic call (Test System: AMES SALMONELLA TYPHIMURIUM, Strain/Indicator: TA100, Metabolic Activation: NONE, Method: PREINCUBATION): inactive; negative
mutagenic call [2]: inactive; negative
mutagenic call (Test System: AMES SALMONELLA TYPHIMURIUM, Strain/Indicator: TA100, Metabolic Activation: RAT, LIVER, S-9, AROCLOR 1254 (10%), Method: PREINCUBATION): inactive; negative
mutagenic call (Test System: AMES SALMONELLA TYPHIMURIUM, Strain/Indicator: TA100, Metabolic Activation: RAT, LIVER, S-9, AROCLOR, Method: STANDARD PLATE): inactive; negative
mutagenic call (Test System: AMES SALMONELLA TYPHIMURIUM, Strain/Indicator: TA102, Metabolic Activation: NONE, Method: STANDARD PLATE): active; positive
mutagenic call (Test System: AMES SALMONELLA TYPHIMURIUM, Strain/Indicator: TA102, Metabolic Activation: RAT, LIVER, S-9, AROCLOR 1254, Method: STANDARD PLATE): active; positive
mutagenic call (Test System: AMES SALMONELLA TYPHIMURIUM, Strain/Indicator: TA1535, Metabolic Activation: HAMSTER, LIVER, S-9, AROCLOR 1254 (10%), Method: PREINCUBATION): inactive; negative
mutagenic call (Test System: AMES SALMONELLA TYPHIMURIUM, Strain/Indicator: TA1535, Metabolic Activation: NONE, Method: PREINCUBATION): inactive; negative
mutagenic call [3]: inactive; negative
mutagenic call (Test System: AMES SALMONELLA TYPHIMURIUM, Strain/Indicator: TA1535, Metabolic Activation: RAT, LIVER, S-9, AROCLOR 1254 (10%), Method: PREINCUBATION): inactive; negative
mutagenic call (Test System: AMES SALMONELLA TYPHIMURIUM, Strain/Indicator: TA1535, Metabolic Activation: RAT, LIVER, S-9, AROCLOR, Method: STANDARD PLATE): inactive; negative
mutagenic call (Test System: AMES SALMONELLA TYPHIMURIUM, Strain/Indicator: TA1537, Metabolic Activation: HAMSTER, LIVER, S-9, AROCLOR 1254 (10%), Method: PREINCUBATION): inactive; negative
mutagenic call (Test System: AMES SALMONELLA TYPHIMURIUM, Strain/Indicator: TA1537, Metabolic Activation: NONE, Method: PREINCUBATION): inactive; negative
mutagenic call (Test System: AMES SALMONELLA TYPHIMURIUM, Strain/Indicator: TA1537, Metabolic Activation: RAT, LIVER, S-9, AROCLOR 1254 (10%), Method: PREINCUBATION): inactive; negative
mutagenic call (Test System: UDS RODENT HEPATOCYTES, Strain/Indicator: THY INCORP (NON-S-PHASE), Metabolic Activation: NONE, Method: AUTORADIOGRAPHY): inactive; negative

CC(=O)Nc1ccc([C@@H]2O[C@@H]2C(=O)c2ccccc2)cc1
mutagenic call [1]: inactive; negative
mutagenic call (Test System: AMES SALMONELLA TYPHIMURIUM, Strain/Indicator: TA98, Metabolic Activation: RAT, LIVER, S-9, AROCLOR 1254, Method: STANDARD PLATE): active; positive
mutagenic call [2]: active; positive
mutagenic call (Test System: AMES SALMONELLA TYPHIMURIUM, Strain/Indicator: TA100, Metabolic Activation: RAT, LIVER, S-9, AROCLOR 1254, Method: STANDARD PLATE): active; positive

O=C1CCCc2cc3c(cc21)c([N+](=O)[O-])cc1ccccc13
mutagenic call (Test System: AMES SALMONELLA TYPHIMURIUM, Strain/Indicator: TA98-1,8-DNP6, Metabolic Activation: NONE): inactive; negative
mutagenic call (Test System: AMES SALMONELLA TYPHIMURIUM, Strain/Indicator: TA98-1,8-DNP6, Metabolic Activation: S-9): inactive; negative
mutagenic call (Test System: AMES SALMONELLA TYPHIMURIUM, Strain/Indicator: TA98, Metabolic Activation: NONE): active; positive
mutagenic call (Test System: AMES SALMONELLA TYPHIMURIUM, Strain/Indicator: TA98, Metabolic Activation: S-9): active; positive
mutagenic call (Test System: AMES SALMONELLA TYPHIMURIUM, Strain/Indicator: TA98NR, Metabolic Activation: NONE): inactive; negative
mutagenic call (Test System: AMES SALMONELLA TYPHIMURIUM, Strain/Indicator: TA98NR, Metabolic Activation: S-9): inactive; negative
mutagenic call (Test System: AMES SALMONELLA TYPHIMURIUM, Strain/Indicator: TA100, Metabolic Activation: NONE): active; positive
mutagenic call (Test System: AMES SALMONELLA TYPHIMURIUM, Strain/Indicator: TA100, Metabolic Activation: S-9): active; positive
mutagenic call (Test System: AMES SALMONELLA TYPHIMURIUM, Strain/Indicator: TA100NR, Metabolic Activation: NONE): active; positive
mutagenic call (Test System: AMES SALMONELLA TYPHIMURIUM, Strain/Indicator: TA100NR, Metabolic Activation: S-9): active; positive

CCCCC1CO1 (stereo unspecified)
mutagenic call [2]: inactive; negative
mutagenic call [3]: inactive; negative

C#CC
mutagenic call (End Point: IN VITRO CHROMOSOMAL ABERRATIONS, Test System: CHL CELLS, Metabolic Activation: RAT, LIVER, S-9, SODIUM PHENOBARBITAL AND 5,6-BENZOFLAVONE): inactive; negative; authors report equivocal results for structural changes at the highest
mutagenic call (Test System: AMES SALMONELLA TYPHIMURIUM, Strain/Indicator: TA98, Metabolic Activation: NONE, Method: GAS EXPOSURE): inactive; negative
mutagenic call (Test System: AMES SALMONELLA TYPHIMURIUM, Strain/Indicator: TA98, Metabolic Activation: RAT LIVER S-9, PHENOBARBITAL AND BETA-NAPHTHOFLAVONE (40%), Method: GAS EXPOSURE): inactive; negative
mutagenic call (Test System: AMES SALMONELLA TYPHIMURIUM, Strain/Indicator: TA98, Metabolic Activation: RAT, LIVER, S-9, PHENOBARBITAL AND 5,6-BENZOFLAVONE, Method: GAS EXPOSURE): inactive; negative
mutagenic call (Test System: AMES SALMONELLA TYPHIMURIUM, Strain/Indicator: TA100, Metabolic Activation: NONE, Method: GAS EXPOSURE): inactive; negative
mutagenic call (Test System: AMES SALMONELLA TYPHIMURIUM, Strain/Indicator: TA100, Metabolic Activation: RAT LIVER S-9, PHENOBARBITAL AND BETA-NAPHTHOFLAVONE (40%), Method: GAS EXPOSURE): inactive; negative
mutagenic call (Test System: AMES SALMONELLA TYPHIMURIUM, Strain/Indicator: TA100, Metabolic Activation: RAT, LIVER, S-9, PHENOBARBITAL AND 5,6-BENZOFLAVONE, Method: GAS EXPOSURE): inactive; negative
mutagenic call (Test System: AMES SALMONELLA TYPHIMURIUM, Strain/Indicator: TA1535, Metabolic Activation: NONE, Method: GAS EXPOSURE): inactive; negative
mutagenic call (Test System: AMES SALMONELLA TYPHIMURIUM, Strain/Indicator: TA1535, Metabolic Activation: RAT LIVER S-9, PHENOBARBITAL AND BETA-NAPHTHOFLAVONE (40%), Method: GAS EXPOSURE): inactive; negative
mutagenic call (Test System: AMES SALMONELLA TYPHIMURIUM, Strain/Indicator: TA1535, Metabolic Activation: RAT, LIVER, S-9, PHENOBARBITAL AND 5,6-BENZOFLAVONE, Method: GAS EXPOSURE): inactive; negative
mutagenic call (Test System: AMES SALMONELLA TYPHIMURIUM, Strain/Indicator: TA1537, Metabolic Activation: NONE, Method: GAS EXPOSURE): inactive; negative
mutagenic call (Test System: AMES SALMONELLA TYPHIMURIUM, Strain/Indicator: TA1537, Metabolic Activation: RAT LIVER S-9, PHENOBARBITAL AND BETA-NAPHTHOFLAVONE (40%), Method: GAS EXPOSURE): inactive; negative
mutagenic call (Test System: AMES SALMONELLA TYPHIMURIUM, Strain/Indicator: TA1537, Metabolic Activation: RAT, LIVER, S-9, PHENOBARBITAL AND 5,6-BENZOFLAVONE, Method: GAS EXPOSURE): inactive; negative
mutagenic call (Test System: E. COLI, Strain/Indicator: WP2 UVRA, Metabolic Activation: NONE, Method: GAS EXPOSURE): active; positive
mutagenic call (Test System: E. COLI, Strain/Indicator: WP2 UVRA, Metabolic Activation: RAT, LIVER, S-9, PHENOBARBITAL AND 5,6-BENZOFLAVONE, Method: GAS EXPOSURE): active; positive
mutagenic call (Test System: E.COLI, Strain/Indicator: WP2UVRA, Metabolic Activation: NONE, Method: GAS EXPOSURE): active; positive
mutagenic call (Test System: E.COLI, Strain/Indicator: WP2UVRA, Metabolic Activation: RAT LIVER S-9, PHENOBARBITAL AND BETA-NAPHTHOFLAVONE (40%), Method: GAS EXPOSURE): active; positive
